Experimental data published in article PMC5067704 (ACS Infectious Diseases, 2016).
In brackets after ≈: the same amount, converted by molar mass. Where two headings read alike, the source gives them in different places.

Key:
E. coli clin isol [1] = test: MIC determination, E. coli clinical isolate (second column); format: cell-based; conditions: Escherichia coli, n = 4
E. coli tolC mutant = test: microbe, parasite or virus in culture; format: cell-based, Escherichia coli; conditions: for MIC: Escherichia coli, read-out: MIC E. coli tolC mutant
E. coli DC2 mutant = test: microbe, parasite or virus in culture; format: cell-based; conditions: Escherichia coli, DC2MUTANT, read-out: MIC E. coli DC2 mutant
S. aureus ATCC 25923 = test: MIC determination, S. aureus ATCC 25923; format: cell-based; conditions: Staphylococcus aureus
[2] = Cytotoxicity assay (resazurin), HepG2; format: cell-based; conditions: human, HepG2 cells, 20 h incubation, highest concentration 60 μM
[3] = Cytotoxicity assay (resazurin), HEK 293; format: cell-based; conditions: human, HEK293 cells, 20 h incubation, highest concentration 60 μM
E. coli lpxC/tolC mutant = test: microbe, parasite or virus in culture; format: cell-based; conditions: Escherichia coli, read-out: MIC E. coli lpxC/tolC mutant
E. coli ATCC 25922 = test: MIC determination, E. coli ATCC 25922 (wild type); format: cell-based, Escherichia coli; conditions: for MIC: Escherichia coli
[4] = biological target: T1, E. coli dihydrofolate reductase (eDHFR) (Escherichia coli, UniProt P0ABQ4); test: DHFR enzyme inhibition assay; format: biochemical
T1 construct: host or cells: cell-free (PURExpress in vitro protein synthesis)
T1 sequence (P0ABQ4 whole entry): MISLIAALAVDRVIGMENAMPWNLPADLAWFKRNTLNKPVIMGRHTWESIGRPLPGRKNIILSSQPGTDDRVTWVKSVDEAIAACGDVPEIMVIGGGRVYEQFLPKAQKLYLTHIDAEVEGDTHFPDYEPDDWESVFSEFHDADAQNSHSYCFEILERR

E. coli MB4827 = test: MIC determination, E. coli MB4827; format: cell-based; conditions: Escherichia coli, n = 4
E. coli clin isol [5] = test: MIC determination, E. coli clinical isolate (first column); format: cell-based; conditions: Escherichia coli, n = 4
[6] = tested on: membrane-impaired mutant E. coli (LpxC and DC2); test: microbe, parasite or virus in culture; conditions: Escherichia coli, read-out: MIC membrane-impaired mutant E. coli (LpxC and DC2)
E. coli lpxC mutant = test: microbe, parasite or virus in culture; format: cell-based; conditions: Escherichia coli, read-out: MIC E. coli lpxC mutant
E. coli (ATCC 25922) = test: LC-MS/MS bacterial accumulation assay, wild type E. coli; format: cell-based, Escherichia coli; conditions: example of the calculation; strain and dose not stated
[7] = ATCC25923, n = 4, read-out: MIC S. aureus ATCC 25923
[8] = ATCC25922, wild type, n = 4, read-out: MIC E. coli ATCC 25922

| Structure (SMILES) | MIC (E. coli clin isol [1]) | MIC (E. coli tolC mutant) | MIC (E. coli DC2 mutant) | MIC (S. aureus ATCC 25923; [7]) | CC50 at 20 h [2] | CC50 at 20 h [3] | MIC (E. coli lpxC/tolC mutant) | antimicrobial activity, fold less active than TMP (E. coli ATCC 25922; E. coli strains of Table 1) | MIC (E. coli ATCC 25922; [8]) | IC50 [4] | MIC (E. coli MB4827) | MIC (E. coli clin isol [5]) | MIC [6] | MIC (E. coli lpxC mutant) | MIC E. coli ΔtolC (E. coli tolC mutant; molar equivalent of the μg/mL value) | MIC (S. aureus ATCC 25923; ATCC25923, molar equivalent of the μg/mL value, read-out: MIC S. aureus ATCC 25923, in μM) | measured concentration using LC-MS/MS (lysate) (E. coli (ATCC 25922)) | MIC (E. coli ATCC 25922; ATCC25922, molar equivalent of the μg/mL value, read-out: MIC E. coli ATCC 25922, in μM) |
| --- | --- | --- | --- | --- | --- | --- | --- | --- | --- | --- | --- | --- | --- | --- | --- | --- | --- | --- |
| COc1cc(Cc2cnc(N)nc2N)cc(OC)c1OCCCN=[N+]=[N-] [8a] | 4 µg/mL (≈ 11.1 µM) | 0.25 µg/mL (≈ 0.696 µM) | 4 µg/mL (≈ 11.1 µM) | 4 µg/mL | > 60 µM | > 60 µM | 0.25 µg/mL (≈ 0.696 µM) | 8–16 fold | 8 µg/mL | 0.066 µM | 8 µg/mL (≈ 22.3 µM) | 8 µg/mL (≈ 22.3 µM) | – | – | – | – | – | – |
| COc1cc(Cc2cnc(N)nc2N)cc(OC)c1OC [TMP, trimethoprim, reference compound] | 0.5 µg/mL (≈ 1.72 µM) | 0.125 µg/mL (≈ 0.431 µM) | 0.25 µg/mL (≈ 0.861 µM) | 1 µg/mL | – | – | 0.125 µg/mL (≈ 0.431 µM) | – | 0.5 µg/mL | – | 1 µg/mL (≈ 3.44 µM) | 0.5 µg/mL (≈ 1.72 µM) | 0.25 to 0.5 µg/mL (≈ 0.861 to 1.72 µM) | – | – | – | – | – |
| COc1cc(Cc2cnc(N)nc2N)cc(OC)c1OCCCCn1cc(CNS(=O)(=O)c2cccc3c(N(C)C)cccc23)nn1 [compound 14b] | > 64 µg/mL | 0.5 µg/mL (≈ 0.756 µM) | > 64 µg/mL | 64 µg/mL | > 60 µM | 59 µM | 1 µg/mL (≈ 1.51 µM) | – | > 64 µg/mL | 0.226 µM | > 64 µg/mL | > 64 µg/mL | – | > 64 µg/mL | – | – | – | – |
| COc1cc(Cc2cnc(N)nc2N)cc(OC)c1OCCCCCn1cc(CNc2ccc([N+](=O)[O-])c3nonc23)nn1 [compound 12c] | > 64 µg/mL | 0.5 µg/mL (≈ 0.826 µM) | > 64 µg/mL | 8 µg/mL | > 60 µM | 46 µM | 0.5 µg/mL (≈ 0.826 µM) | – | > 64 µg/mL | 0.208 µM | > 64 µg/mL | > 64 µg/mL | – | > 64 µg/mL | – | – | – | – |
| COc1cc(Cc2cnc(N)nc2N)cc(OC)c1OCCCn1cc(CNc2ccc([N+](=O)[O-])c3nonc23)nn1 [12a] | > 64 µg/mL | 2 µg/mL (≈ 3.46 µM) | > 64 µg/mL | 64 µg/mL | > 60 µM | > 60 µM | 1 µg/mL (≈ 1.73 µM) | – | > 64 µg/mL | 0.254 µM | > 64 µg/mL | > 64 µg/mL | – | > 64 µg/mL | – | – | – | – |
| COc1cc(Cc2cnc(N)nc2N)cc(OC)c1OCCCCCN=[N+]=[N-] [8c] | 16 µg/mL (≈ 41.3 µM) | 0.125 µg/mL (≈ 0.323 µM) | 8 µg/mL (≈ 20.6 µM) | 4 µg/mL | > 60 µM | > 60 µM | 0.25 µg/mL (≈ 0.645 µM) | – | 32 µg/mL | 0.14 µM | 32 µg/mL (≈ 82.6 µM) | 16 µg/mL (≈ 41.3 µM) | – | 8 µg/mL (≈ 20.6 µM) | – | – | – | – |
| COc1cc(Cc2cnc(N)nc2N)cc(OC)c1OCCCCn1cc(CNc2ccc([N+](=O)[O-])c3nonc23)nn1 [compound 12b] | > 64 µg/mL | 0.25 µg/mL (≈ 0.423 µM) | > 64 µg/mL | – | > 60 µM | > 60 µM | 0.5 µg/mL (≈ 0.845 µM) | – | – | 0.148 µM | > 64 µg/mL | > 64 µg/mL | – | > 64 µg/mL | 0.37 µM | > 94 µM | 7.122 µM | 24 µM |
| COc1cc(Cc2cnc(N)nc2N)cc(OC)c1OCCCCCn1cc(CNS(=O)(=O)c2cccc3c(N(C)C)cccc23)nn1 [compound 14c] | > 64 µg/mL | 0.25 µg/mL (≈ 0.37 µM) | > 64 µg/mL | 32 µg/mL | 51 µM | 32 µM | 0.25 µg/mL (≈ 0.37 µM) | – | > 64 µg/mL | 0.509 µM | > 64 µg/mL | > 64 µg/mL | – | > 64 µg/mL | – | – | – | – |
| COc1cc(Cc2cnc(N)nc2N)cc(OC)c1OCCCCCn1cc(CNC(=O)Cc2cc(=O)oc3cc(N(C)C)ccc23)nn1 [compound 13c] | > 64 µg/mL | 1 µg/mL (≈ 1.49 µM) | > 64 µg/mL | > 64 µg/mL | > 60 µM | > 60 µM | 1 µg/mL (≈ 1.49 µM) | – | > 64 µg/mL | 0.668 µM | > 64 µg/mL | > 64 µg/mL | – | > 64 µg/mL | – | – | – | – |
| COc1cc(Cc2cnc(N)nc2N)cc(OC)c1OCCCCn1cc(CNC(=O)Cc2cc(=O)oc3cc(N(C)C)ccc23)nn1 [compound 13b] | > 64 µg/mL | 2 µg/mL (≈ 3.04 µM) | > 64 µg/mL | > 64 µg/mL | > 60 µM | > 60 µM | 2 µg/mL (≈ 3.04 µM) | – | > 64 µg/mL | 0.162 µM | > 64 µg/mL | > 64 µg/mL | – | > 64 µg/mL | – | – | – | – |
| COc1cc(Cc2cnc(N)nc2N)cc(OC)c1OCCCn1cc(CNC(=O)Cc2cc(=O)oc3cc(N(C)C)ccc23)nn1 [13a] | > 64 µg/mL | 8 µg/mL (≈ 12.4 µM) | > 64 µg/mL | > 64 µg/mL | > 60 µM | > 60 µM | 8 µg/mL (≈ 12.4 µM) | – | > 64 µg/mL | 0.083 µM | > 64 µg/mL | > 64 µg/mL | – | > 64 µg/mL | – | – | – | – |
| COc1cc(Cc2cnc(N)nc2N)cc(OC)c1OCCCCN=[N+]=[N-] [8b] | 16 µg/mL (≈ 42.8 µM) | 0.125 µg/mL (≈ 0.335 µM) | 8 µg/mL (≈ 21.4 µM) | 4 µg/mL | > 60 µM | > 60 µM | 0.25 µg/mL (≈ 0.669 µM) | – | 32 µg/mL | 0.097 µM | 16 µg/mL (≈ 42.8 µM) | 8 µg/mL (≈ 21.4 µM) | – | – | – | – | – | – |
| COc1cc(Cc2cnc(N)nc2N)cc(OC)c1OCCCn1cc(CNS(=O)(=O)c2cccc3c(N(C)C)cccc23)nn1 [compound 14a] | > 64 µg/mL | 0.5 µg/mL (≈ 0.772 µM) | > 64 µg/mL | > 64 µg/mL | > 60 µM | 59 µM | 0.5 µg/mL (≈ 0.772 µM) | – | > 64 µg/mL | 0.162 µM | > 64 µg/mL | > 64 µg/mL | – | > 64 µg/mL | – | – | – | – |
